For data set [1], the system named is Wnt/β-Catenin signaling pathway. In words: Wnt signaling luciferase (TOPflash) reporter gene assay. The class given is cell-based. The conditions noted are these: for IC50: luciferase reporter gene assay, mean of three independent experiments, read-out: IC50 (nM) to inhibit the Wnt signaling activity. The text has this:
A dual-luciferase gene reporter assay was used to test inhibitory activities of new compounds on Wnt signaling. […] Therefore, the effects of new compounds on AMPK was examined. […]

Data set [2] is described as follows: Cytotoxicity (CC50) during the luciferase gene reporter assay. The class given is cell-based. To be noted: human, HEK293 cells; short treatment duration of the luciferase gene reporter assay.

The IC50 is the concentration that gives 50% inhibition. The CC50 is the concentration giving 50% cytotoxicity. A lower CC50 goes with greater toxicity to the cells. As for `Cc1ccccc1-n1ncc(C(=O)Nc2ccc(-c3ccccc3)cn2)c1C` [YA7018, 5-Methyl-N-(5-phenylpyridin-2-yl)-1-(o-tolyl)-1H-pyrazole-4-carboxamide], in data set [1], the half-inhibitory concentration (IC50) was over 1000 nM. For the same compound, the CC50 in data set [2] is over 92000 nM.
In general, inhibition refers to the percentage by which the read-out fell short of the control. A higher inhibition goes with strong suppression. `O=C(Nc1nc2ccccc2s1)c1csc(-c2ccccc2)n1` [YA6082]: in data set [1], the inhibition at 1 µM was 70% and the IC50 was determined as 470 nM. In data set [2], this compound had a CC50 of over 92000 nM.
In the same order, the values of `Cc1c(C(=O)Nc2nc3ccccc3s2)nnn1-c1cccc(Br)c1` [YA1050, N-(Benzo[d]thiazol-2-yl)-1-(3-bromophenyl)-5-methyl-1H-1,2,3-triazole-4-carboxamide] are 7%, over 1000 nM and over 92000 nM.
Consider `Cc1c(C(=O)Nc2nc3ccccc3s2)nnn1-c1ccc(Cl)cc1` [YA1074, N-(Benzo[d]thiazol-2-yl)-1-(4-chlorophenyl)-5-methyl-1H-1,2,3-triazole-4-carboxamide], for which, in data set [1], the inhibition at 1 µM was found to be 18% and the IC50 is over 1000 nM. In data set [2], this compound came in with a half-maximal cytotoxic concentration (CC50) of over 92000 nM.
For `O=C(Nc1ccc2ccccc2n1)c1nnn(-c2ccccc2F)n1` [YA70032, 2-(2-Fluorophenyl)-N-(quinolin-2-yl)-2H-tetrazole-5-carboxamide], the IC50 in data set [1] was over 1000 nM. This compound had a CC50 in data set [2] of over 92000 nM.
Regarding `Cc1ccccc1-n1nnc(C(=O)Nc2nc3c(F)cccc3s2)c1C` [YA4093, N-(4-Fluorobenzo[d]thiazol-2-yl)-5-methyl-1-(o-tolyl)-1H-1,2,3-triazole-4-carboxamide], in data set [1], testing at 1 µM gave an inhibition of 37% and the IC50 is over 1000 nM. Further, in data set [2], the CC50 is over 92000 nM.
In the same order, the values of `Cc1ccccc1-n1nnc(C(=O)Nc2nc3c(Br)cccc3s2)c1C` [YA4097, N-(4-Bromobenzo[d]thiazol-2-yl)-5-methyl-1-(o-tolyl)-1H-1,2,3-triazole-4-carboxamide] are 11%, over 1000 nM and over 92000 nM.
On the same counts, the results for `Cc1c(C(=O)Nc2nc3ccccc3s2)nnn1-c1cccc(F)c1` [YA1072, N-(Benzo[d]thiazol-2-yl)-1-(3-fluorophenyl)-5-methyl-1H-1,2,3-triazole-4-carboxamide] are 42%, over 1000 nM and over 92000 nM.
In the case of `Cc1c(C(=O)Nc2nc3ccccc3s2)nnn1-c1ccc(Br)cc1` [YA1086, N-(Benzo[d]thiazol-2-yl)-1-(4-bromophenyl)-5-methyl-1H-1,2,3-triazole-4-carboxamide], in data set [1], at 1 µM the inhibition was 32% and the IC50 was over 1000 nM. Besides, the CC50 in data set [2] is over 92000 nM.
With `Cc1ccccc1-n1nnc(C(=O)Nc2nc3ccc(F)cc3s2)c1C` [YA4103, N-(6-Fluorobenzo[d]thiazol-2-yl)-5-methyl-1-(o-tolyl)-1H-1,2,3-triazole-4-carboxamide], the IC50 in data set [1] worked out at 4 nM. The cytotoxic concentration (CC50) in data set [2] was over 92000 nM.
Regarding `Cc1cccc(Br)c1-n1nnc(C(=O)Nc2nc3ccccc3s2)c1C` [YA1064, N-(Benzo[d]thiazol-2-yl)-1-(2-bromo-6-methylphenyl)-5-methyl-1H-1,2,3-triazole-4-carboxamide], in data set [1], the inhibition at 1 µM was 72% and the IC50 turned out to be 126 nM. This compound also returned a cytotoxic concentration (CC50) in data set [2] of over 92000 nM.
In the same order, the values of `Cc1c(C(=O)Nc2nc3ccccc3s2)nnn1-c1c(Cl)cccc1Cl` [YA1066, N-(Benzo[d]thiazol-2-yl)-1-(2,6-dichlorophenyl)-5-methyl-1H-1,2,3-triazole-4-carboxamide] are 88%, 19 nM and over 92000 nM.
As for `Cc1c(C(=O)Nc2nc3ccccc3s2)cnn1-c1ccccc1` [YA4011, N-(Benzo[d]thiazol-2-yl)-5-methyl-1-phenyl-1H-pyrazole-4-carboxamide], the IC50 in data set [1] is 8.2 nM. The same compound returned a CC50 in data set [2] of over 92000 nM.
Take `Cc1ccccc1-n1nnc(C(=O)Nc2ccc3cccnc3n2)c1C` [YA6047, 5-Methyl-N-(1,8-naphthyridin-2-yl)-1-(o-tolyl)-1H-1,2,3-triazole-4-carboxamide]: in data set [1], the concentration for half-maximal inhibition (IC50) was over 1000 nM. Further, the CC50 in data set [2] is over 92000 nM.
Regarding `O=C(Nc1ccc2ccccc2n1)c1nnn(-c2ccccc2)n1` [YA6171, 2-Phenyl-N-(quinolin-2-yl)-2H-tetrazole-5-carboxamide], in data set [1], the IC50 is over 1000 nM. Moreover, the CC50 in data set [2] is over 92000 nM.
With `Cc1ccccc1-n1nnc(C(=O)Nc2cc3ccccc3cn2)c1C` [YA6164, N-(Isoquinolin-3-yl)-5-methyl-1-(o-tolyl)-1H-1,2,3-triazole-4-carboxamide], the 50% inhibitory concentration (IC50) in data set [1] was over 1000 nM. The compound also yielded a CC50 in data set [2] of over 92000 nM.
Consider `Cc1ccc(-n2nnc(C(=O)Nc3nc4ccccc4s3)c2C)c(C)c1` [YA4039], for which, in data set [1], testing at 1 µM gave an inhibition of 88% and the IC50 came out at 17 nM. In data set [2], this compound had a CC50 of over 92000 nM.
As to `Cc1c(C(=O)Nc2nc3ccccc3s2)nnn1-c1cc(F)ccc1F` [YA1084, N-(Benzo[d]thiazol-2-yl)-1-(2,5-difluorophenyl)-5-methyl-1H-1,2,3-triazole-4-carboxamide], in data set [1], the inhibition at 1 µM was 88% and the half-maximal inhibitory concentration (IC50) came to 4.7 nM. The compound also gave a cytotoxic concentration (CC50) in data set [2] of over 92000 nM.
As for `Cc1c(C(=O)Nc2cnc3ccccc3n2)nnn1-c1ccccc1C#N` [YA6137, 1-(2-Cyanophenyl)-5-methyl-N-(quinoxalin-2-yl)-1H-1,2,3-triazole-4-carboxamide], in data set [1], the half-maximal inhibitory concentration (IC50) amounted to 6 nM. Further, the 50% cytotoxic concentration (CC50) in data set [2] was over 92000 nM.
Consider `Cc1c(C(=O)Nc2nc3ccc(F)cc3s2)nnn1-c1ccccc1F` [YA4155, N-(6-Fluorobenzo[d]thiazol-2-yl)-1-(2-fluorophenyl)-5-methyl-1H-1,2,3-triazole-4-carboxamide], for which, in data set [1], the inhibition at 1 µM was determined as 96% and the IC50 is 0.4 nM. Further, the CC50 in data set [2] is over 92000 nM.
With `Cc1cccc(-n2nnc(C(=O)Nc3nc4ccccc4s3)c2C)c1C` [YA4037], in data set [1], at 1 µM the inhibition was 83% and the IC50 came out at 18 nM. This compound also had a CC50 in data set [2] of over 92000 nM.
On to `Cc1ccccc1-n1ncc(C(=O)Nc2ccc(-c3ccccc3)cc2)c1C` [YA7016, N-([1,1′-biphenyl]-4-yl)-5-methyl-1-(o-tolyl)-1H-pyrazole-4-carboxamide], for which, in data set [1], the IC50 is over 1000 nM. Moreover, the half-maximal cytotoxic concentration (CC50) in data set [2] was over 92000 nM.
With `Cc1ccccc1-n1nnc(C(=O)Nc2nc3ccc(C(F)(F)F)cc3s2)c1C` [YA4063, 5-Methyl-1-(o-tolyl)-N-(6-(trifluoromethyl)benzo[d]thiazol-2-yl)-1H-1,2,3-triazole-4-carboxamide], in data set [1], testing at 1 µM gave an inhibition of 24% and the IC50 was over 1000 nM. Also, the 50% cytotoxic concentration (CC50) in data set [2] was over 92000 nM.
In the case of `Cc1ccccc1-n1nnc(C(=O)Nc2ccc3cc(B4OC(C)(C)C(C)(C)O4)ccc3n2)c1C` [YA6063], the IC50 in data set [1] was 148 nM. In addition, in data set [2], the half-maximal cytotoxic concentration (CC50) was over 92000 nM.
For `Cc1c(C(=O)Nc2nc3ccccc3s2)cnn1-c1c(F)cccc1Br` [YA4017, N-(Benzo[d]thiazol-2-yl)-1-(2-bromo-6-fluorophenyl)-5-methyl-1H-pyrazole-4-carboxamide], the IC50 in data set [1] stood at 8.2 nM. In data set [2], the CC50 is over 92000 nM.
Take `Cc1ccccc1-n1nnc(C(=O)Nc2cnc3ccccc3c2)c1C` [YA6161, 5-Methyl-N-(quinolin-3-yl)-1-(o-tolyl)-1H-1,2,3-triazole-4-carboxamide]: the half-maximal inhibitory concentration (IC50) in data set [1] was over 1000 nM. In addition, the CC50 in data set [2] was over 92000 nM.
Turning to `Cc1ccccc1-n1nnc(C(=O)Nc2ccc3ccccc3n2)n1` [YA70031, N-(Quinolin-2-yl)-2-(o-tolyl)-2H-tetrazole-5-carboxamide], the IC50 in data set [1] was over 1000 nM. The same compound gave a CC50 in data set [2] of over 92000 nM.
Turning to `Cc1cc(Br)ccc1-n1nnc(C(=O)Nc2nc3ccccc3s2)c1C` [YA6009], in data set [1], the inhibition at 1 µM was 15% and the half-maximal inhibitory concentration (IC50) was over 1000 nM. The compound also came in with a CC50 in data set [2] of over 92000 nM.
Take `Cc1ccccc1-n1ncc(C(=O)Nc2ncc(-c3ccccc3)s2)c1C` [YA7019, 5-Methyl-N-(5-phenylthiazol-2-yl)-1-(o-tolyl)-1H-pyrazole-4-carboxamide]: the IC50 in data set [1] is over 1000 nM. Also, the cytotoxic concentration (CC50) in data set [2] was over 92000 nM.
For `Cc1ccccc1-n1nnc(C(=O)Nc2ccc3cccc(CN4CCN(C(=O)OC(C)(C)C)CC4)c3n2)c1C` [YA6160, tert-Butyl 4-((2-(5-methyl-1-(o-tolyl)-1H-1,2,3-triazole-4-carboxamido)quinolin-8-yl)methyl)piperazine-1-carboxylate], in data set [1], the IC50 is over 1000 nM. In data set [2], the 50% cytotoxic concentration (CC50) was over 92000 nM.
Turning to `COc1ccccc1-n1nnc(C(=O)Nc2ccc3ccccc3n2)n1` [YA70034, 2-(2-Methoxyphenyl)-N-(quinolin-2-yl)-2H-tetrazole-5-carboxamide], in data set [1], the IC50 was over 1000 nM. Also, in data set [2], the CC50 is over 92000 nM.
`O=C(Nc1cnc2ccccc2n1)c1nnn(-c2ccccc2)n1` [YA6177, 2-Phenyl-N-(quinoxalin-2-yl)-2H-tetrazole-5-carboxamide]: the IC50 in data set [1] is over 1000 nM. In addition, the CC50 in data set [2] was over 92000 nM.
Take `Cc1cc(C(=O)Nc2nc3ccccc3s2)c(C)n1-c1ccccc1` [YA4136]: in data set [1], the IC50 is over 1000 nM. Also, in data set [2], the CC50 is over 92000 nM.
On the same counts, the results for `Cc1ccccc1-n1nnc(C(=O)Nc2cccc3cccnc23)c1C` [YA6055, 5-Methyl-N-(quinolin-8-yl)-1-(o-tolyl)-1H-1,2,3-triazole-4-carboxamide] are over 1000 nM and over 92000 nM.
As for `Cc1ccccc1-n1nnc(C(=O)Nc2cnc3ccccc3n2)c1C` [YA6045, 5-Methyl-N-(quinoxalin-2-yl)-1-(o-tolyl)-1H-1,2,3-triazole-4-carboxamide], in data set [1], the half-inhibitory concentration (IC50) is 1.8 nM. Further, in data set [2], the CC50 is over 92000 nM.
As for `Cc1c(C(=O)Nc2nc3ccccc3s2)nnn1-c1ccccc1OC(F)(F)F` [YA1038, N-(Benzo[d]thiazol-2-yl)-5-methyl-1-(2-(trifluoromethoxy)phenyl)-1H-1,2,3-triazole-4-carboxamide], in data set [1], testing at 1 µM gave an inhibition of 37% and the IC50 is over 1000 nM. The CC50 in data set [2] is over 92000 nM.

Source of the values: patent US20240279201A1, “DUAL WNT SIGNALING PATHWAY INHIBITORS AND AMPK ACTIVATORS FOR TREATMENTS OF DISEASE” (priority 2021, published 2024).
